Measurements reported in US20240050395A1 (priority 2020, published 2024).

System: SU-DHL-1 lymphoma cells
Settings: mouse, in vivo

O=P1(N(CCCl)CCCl)NCCCO1 (stereo not drawn) [cyclophosphamide] was tested, and the “animal weight relative to the average weight on day 0” value was 104.7%±1.6%, the mean tumor volume was 367±79 mm^3 and the “tumor volume inhibition rate TGITV” value was −93%.
